Data from patent publication EP0028778B1, “Antibacterial compositions comprising a beta-lactam-type compound and a 3-substituted propenoate” (Merck & Co., Inc., priority 1979, dated 1981).

Key:
[1] = test system: rabbits; test: Nephrotoxicity of NFT alone or in combination with DMCO, intravenous, rabbits, 48 hours; type: in vivo, New Zealand white rabbits; settings: for numbers of rabbits with renal tubular necrosis/numbers of rabbits tested / Renal Tubular Necrosis (degree) / BUN / Creatinine: i.v., 48 hours, rabbits; for Renal Tubular Necrosis (degree): histology; for BUN: mean; for Creatinine: mean serum
Method: The compound N-formimidoyl theinamycin (NFT) and the compound Z-2-(2,2-dimethylcyclopropane carboxamido)-2-ocetenoic acid (DMCO) were tested in rabbits to evaluate nephrootoxicity.
Either NFT alone or in combination with DMCO was administered intravenously to rabbits. After 48 hours blood samples were taken for determination of BUN and creatinine concentrations and the rabbits were killed for histologic examination of kidney sections.
The study was initiated with 28 New Zealand white rabbits which ranged in age from 23 to 27 weeks, and in weight from 2.78 to 3.71 kg for males and 2.81 to 3.85 kg for females. All animals were housed in individual stainless steel cages and maintained in climate-controlled rooms with access to food (Purina Rabbit Chow) and tap water ad libitum.
NFT was administered to six groups of 2 male and 2 female rabbits each at a nominal dose of 180 mg/kg. Five of these groups received DMCO in addition to NFT at nominal doses of 90, 30, 10, 3 or 1 mg/kg. All doses were administered via the marginal ear vein at a dosage volume of 1.89 ml/kg. An additional group of 2 male and 2 female rabbits received 0.9% sterile saline and served as controls.
NFT was dissolved in solutions of sodium bicarbonate (NFT alone group) or sterile solutions of DMCO in sodium bicarbonate at five different concentrations; these solutions were prepared immediately prior to use.
The mean BUN and serum creatinine concentrations and the degrees of renal tubular epithelial necrosis are shown below in Table I: […]

[2] = test system: rabbits; test: as above; type: in vivo, New Zealand white rabbits; settings: single large doses, within 48 hours, dose rates comparable to those used with cephaloridine

## CCCCC/C=C(\NC(=O)C1CC1(C)C)C(=O)O (centres unmarked) [DMCO, Z-2-(2,2-dimethylcyclopropanecarboxamido)-2-octenoic acid]
[1]; NFT 180 mg/kg + DMCO 1 mg/kg
  numbers of rabbits with renal tubular necrosis/numbers of rabbits tested: 4/4
  Renal Tubular Necrosis (degree): Marked-Severe
  BUN: 64.7^S mg/100 ml
  Creatinine: 4.2^S mg/100 ml
[1]; NFT 180 mg/kg + DMCO 3 mg/kg
  numbers of rabbits with renal tubular necrosis/numbers of rabbits tested: 4/4
  Renal Tubular Necrosis (degree): Marked
  BUN: 65.8^S mg/100 ml
  Creatinine: 4.2^S mg/100 ml
[1]; NFT 180 mg/kg + DMCO 10 mg/kg
  numbers of rabbits with renal tubular necrosis/numbers of rabbits tested: 4/4
  Renal Tubular Necrosis (degree): Moderate-Marked
  BUN: 53.1^S mg/100 ml
  Creatinine: 2.9^S mg/100 ml
[1]; NFT 180 mg/kg + DMCO 30 mg/kg
  numbers of rabbits with renal tubular necrosis/numbers of rabbits tested: 4/4
  Renal Tubular Necrosis (degree): V. Sl.-Moderate
  BUN: 26.1^NS mg/100 ml
  Creatinine: 1.3^NS mg/100 ml
[1]; NFT 180 mg/kg + DMCO 90 mg/kg
  numbers of rabbits with renal tubular necrosis/numbers of rabbits tested: 0/4
  Renal Tubular Necrosis (degree): None
  BUN: 16.6^NS mg/100 ml
  Creatinine: 1.2^NS mg/100 ml
[1]; co-administration with the antibiotic, general statement
  ability to prevent nephrotoxicity: has been shown to possess this property

## C[C@@H](O)[C@H]1C(=O)N2C(C(=O)O)=C(SCCN=CN)C[C@H]12 [NFT, N-formimidoyl thienamycin]
[2]
  nephrotoxic potential in the rabbit laboratory model: nephrotoxic
[1]; NFT 180 mg/kg alone
  numbers of rabbits with renal tubular necrosis/numbers of rabbits tested: 4/4
  Renal Tubular Necrosis (degree): Marked-Severe
  BUN: 70.0^S mg/100 ml
  Creatinine: 4.2^S mg/100 ml
